{
  "source": "patent US6964760B2",
  "about": "“Antimicrobial polypeptide, nucleic acid, and methods of use” (University of Florida Research Foundation, priority 1997, dated 2005)",
  "format_in_all_cases": "cell-based",
  "key": {"[1]": {"test_system": "other strains of S. mutans", "experiment": "Sterility of agar taken from clear zones", "conditions": "loopfuls of agar taken from clear zones were sterile"}, "[2]": {"test_system": "Gram-negative bacteria", "experiment": "Overlay technique, Gram-negative bacteria", "procedure": "(§1) Three drops of an overnight THB culture of the indicator strain were mixed with 3 ml of molten top agar and poured evenly over the surface of the plate. After an additional 24 hours of incubation, clear zones surrounding the test strain were measured.\n(§2) The inhibitory factor inhibited 124 of 125 S. mutans strains tested. […] The following table summarizes the spectrum of activity found for the lantibiotic."}, "[3]": {"test_system": "S. mutans strains", "experiment": "Overlay technique, panel of S. mutans strains", "conditions": "mutacin 1140 produced by a JH1140 strain", "procedure": "as §1, §2"}, "[4]": {"test_system": "Gram positive organisms", "experiment": "Overlay technique, Gram positive organisms", "conditions": "including Streptococcus mitts, Streptococcus pyogenes, Staphylococcus aureus, Actinomyces species", "procedure": "as §1, §2"}},
  "data": [
    {"substance": "mutacin 1140", "values": [
      {"measurement": "Kind of effect on other strains of S. mutans", "setting": "[1]", "result": "bacteriocidal"},
      {"measurement": "Inhibition of Gram-negative bacteria", "setting": "[2]", "result": "mostly resistant"},
      {"measurement": "S. mutans strains inhibited of strains tested", "setting": "[3]", "result": "124 of 125"},
      {"measurement": "Sensitivity of most Gram positive organisms to inhibitory activity", "setting": "[4]", "result": "sensitive"}
    ]}
  ]
}
